The source of these data is patent publication US9687480B2, “Chiral 1-(4-methylphenylmethyl)-5-oxo-{N-[(3-t-butoxycarbonyl-aminomethyl)]-piperidin-1-yl)-pyrrolidine as inhibitors of collagen induced platelet activation and adhesion” (Council of Scientific & Industrial Research, priority 2011, dated 2017).

For one assay, the target named is T1, GPVI (Homo sapiens, UniProt Q9HCN6).
T1 construct: Washed platelets, suspended in the Tyrode's-HEPES buffer; endogenous in cells; host or cells: washed human platelets from healthy volunteers
T1 sequence (Q9HCN6 21-339): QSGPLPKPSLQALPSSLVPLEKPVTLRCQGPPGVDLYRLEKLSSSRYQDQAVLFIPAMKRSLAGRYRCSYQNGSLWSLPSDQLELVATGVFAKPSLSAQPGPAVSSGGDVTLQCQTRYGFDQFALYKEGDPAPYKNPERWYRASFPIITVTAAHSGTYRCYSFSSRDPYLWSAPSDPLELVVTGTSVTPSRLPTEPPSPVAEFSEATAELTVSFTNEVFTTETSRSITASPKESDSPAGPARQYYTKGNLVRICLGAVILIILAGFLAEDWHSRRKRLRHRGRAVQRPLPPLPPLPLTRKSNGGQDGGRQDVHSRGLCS
T1 sequence (P30273 19-86 partner): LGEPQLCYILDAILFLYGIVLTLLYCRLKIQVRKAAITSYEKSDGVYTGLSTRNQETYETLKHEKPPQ
The experiment in a line: GPVI-mediated platelet adhesion assay on fibrillar collagen (human, in vitro). Type of assay: cell-based. Conditions: for Platelet adhesion: Table 2 summary, collagen type not stated, effective concentration in brackets: mixture 100 μM, compound 6 30 & 100 μM, compound 7 100 μM; for human platelet adhesion on fibrillar collagen (GP VI mediated): in vitro, washed platelets, divalent cation-free. How it is done:
Fresh blood was drawn by venipuncture from consenting healthy human volunteers in citrate-phosphate-dextrose. Platelet-rich plasma (PRP) was obtained by centrifugation at 180 g for 20 minutes at room temperature (Beckman TJ6. USA). […] Platelets were then washed twice with Buffer (20 mMHEPES, 138 mM NaCl, 2.9 mMKCl, 1 mMMgCl2, 0.36 mMNaH2PO4, 1 mM EGTA, 4.77 mM trisodium citrate, and 2.35 mM citric acid, 5 mM glucose and Apyrase 1 U/ml, pH 6.5) containing 0.1% bovine serum albumin (BSA) and finally resuspended in the HEPES-buffered Tyrode solution (pH 7.4), to give a concentration of 2×10^8 cells/mL (Jandrot-Perrus M. Lagrue A H, Okuma M, and Boni C Adhesion and Activation of Human Platelets Induced by Convulxin Involve Glycoprotein VI and Integrin α2β1 J. Biol. Chem. 1997; 272: 27035-27041).
Integrin α2β1 binding on soluble collagen depends on the presence of Mg2+/Ca^2+ (Onley D. J., Knight C. G., Tuckwell D. S., Barnes M. J., and Farndale R. W. Micromolar Ca2+ concentrations are essential for Mg2+-dependent binding of collagen by the integrin α2β1 in human platelets. J. Biol. Chem, 2000; 275: 24560-24564.) while GPVI mediates adhesion over fibrillar collagen in absence of divalent ions (Nieswandt B., Brakebusch C, Bergmeier W, Schulte V, Bouvard D, Nejad R M, Lindhout T, Heemskerk J W M, Zirngibl H and Fassler R. Glycoprotein VI but not α2b1 integrin is essential for platelet interaction with collagen. The EMBO Journal, 2001; 20:2120-2130) and therefore the adhesion assays were performed in the presence or absence of these divalent cations. Ninety-six well micro titer plates were coated with insoluble equine tendon fibrillar type I collagen or soluble rat tail type I (non-fibrillar) collagen, maintained in acetate buffer (pH 4.5), (Nakamura T., Jamieson G. A., Okuma M., Kambayashi J., and Tendon N. N. Platelet Adhesion to Native Type I Collagen Fibrils: role of gpVI in divalent cation-dependent and -independent adhesion and thromboxane A2 generation. J. Biol. Chem 1998; 273: 4338-[…], Tendon N N, Ockenhouse C F, Greco N J, Jamieson G A. Adhesive functions of platelet lacking GPIV (CD36). Blood 1991: 78: 2809-13). The unoccupied protein binding sites on the wells were blocked with 5 mg/ml BSA at room temperature for 1 hour, and then rinsed once in PBS. Washed platelets, suspended in the Tyrode's-HEPES buffer (136.7 mM NaCl, 13.8 mM NaHCO3, 0.36 mM NaH2PO4.H2O, 2.6 mM KCl, 1.0 mM MgCl2.6H2O, 5.5 mM glucose, 0.5% BSA, pH 7.4) at 1×10^8 cells/mL were pre-incubated with compounds for 30 min at 37° C. and added to the wells (10^7/well) for 1 h at room temperature. Divalent cation-free adhesion buffer was made by replacing Mg^2+ (1 mM) in the Tyrode-HEPES buffer with 50 μM EDTA (Yoshida S., Sudo T., Niimi M., Tao L., Sun B., Kambayashi J., Watanabe H., Luo E., and Matsuoka H. Inhibition of collagen-induced platelet aggregation by anopheline antiplatelet protein, a saliva protein from a malaria vector mosquito. Blood 2007; 111: 2007-201). After three washes in Tyrode's buffer, the number of adherent platelets was evaluated colorimetrically (as described by Bellavite P., Andrioli G., Gizzo P., Arigliano P., Chirumbolo S., Manzato F, Santonastaso C. A colorimetric method for the measurement of platelet adhesion in microtifer plates. Anal. Biochem. 1994; 216:444-450. Briefly, 150 μl of a 0.1 M citrate buffer (pH 5.4), containing 5 mM p-nitrophenyl phosphate and 0.1% TritonX-100 was added to the wells after washing. After incubation for 60 min at 25° C. in the absence of ambient light, colour was developed by the addition of 100 μl of 2N NaOH and the absorbance at 405 nm was read using a microplate reader (Powerware XS, Biotek, USA).

Another assay has as its system hyperlipidemic hamsters. Description: FeCl3 induced thrombosis in hyperlipidemic hamsters. Type of assay: in vivo. Conditions: for time to occlusion (TTO): HCHF fed hamsters. How it is done: HCHF treated hamsters were anesthetized by urethane (1.25 g/kg, i.p.). The carotid artery was carefully dissected and a pulsed Doppler Probe (DBF-120A-CPx, CBI-8000, Crystal Biotech. USA) was placed around it to record the blood flow velocity and potency of the blood vessels. The carotid artery thrombosis was induced by FeCl3 as follows: a square (1×1 mm) of Whatman Chromatography paper was immersed in 30% FeCl3 solution for 5 min and placed on the carotid artery as described earlier (Kurz K D, Main B W, Sandusky G E. Rat model of arterial thrombosis induced by ferric chloride. Thromb Res 1990; 60(4):269-80). Thrombosis was monitored as the reduction in carotid artery blood flow. The time at which the blood-flow velocity was decreased to zero was recorded as the total of occlusion of the vessel.

Assay [1] relates to human platelet rich plasma (ADP induced aggregation). Description: ADP induced platelet aggregation, human platelet rich plasma (in vitro). Type of assay: cell-based. How it is done: The reaction was allowed to proceed for at least 5 min, and the extent of aggregation was expressed in light-transmission units (Ivandic B T, Schlick P, Starltz P, Kurz K, Katas H A, Giannitsis E. Determination of clopidogrel resistance by whole blood platelet aggregometry and inhibitors of the P2Y12 receptor. Clinical Chemistry 2006: 52:383-88).
The percentage of aggregation was calculated by using following formula: Percent Aggregation=A/B×100 Where, A is the number of division traversed by the label on chart in the presence of Inducer & B is the total number of divisions (80). Platelet Aggregation Studies (FIG. 3) a) Platelet Aggregation (Human, In Vitro) (FIG. 3a (i) (ii) (iii))

Regarding “1-(4-methylphenylmethyl)-5-oxo-{N-[(3-t-butoxycarbonyl-aminomethyl)]-piperidin-1-yl}-pyrrolidine-2-carboxamides [Compound 1]”, the Platelet adhesion result on GPVI is listed as “Effective”.

For `Cc1ccc(CN2C(=O)CC[C@H]2C(=O)N2CCCC(CNC(=O)OC(C)(C)C)C2)cc1` (stereo partly drawn) [Compound 1, 1-(4-methylphenylmethyl)-5-oxo-{N-[(3-t-butoxycarbonyl-aminomethyl)]-piperidin-1-yl}-pyrrolidine-2-carboxamides], the “time to occlusion (TTO)” value with hyperlipidemic hamsters is reported as “remained ineffective”. The “human platelet adhesion on fibrillar collagen (GP VI mediated)” value (shortened to “human platelet adhesion”) on GPVI is “partially inhibited”. In addition, the “effect on ADP induced platelet aggregation” value (shortened to “effect”) in assay [1] (concentration not given) was “no effect”.

On to `Cc1ccc(CN2C(=O)CC[C@H]2C(=O)N2CCC[C@@H](CNC(=O)OC(C)(C)C)C2)cc1` [Compound 6], for which the “time to occlusion (TTO)” value in the assay on hyperlipidemic hamsters is listed as “significantly increased”. The “Ferric chloride induced thrombosis in hyperlipidemic hamsters” value with hyperlipidemic hamsters (Table 2 summary) was “Protective”. Besides, on GPVI, the Platelet adhesion result is listed as “Effective (30” and the “human platelet adhesion” value is reported as “partially inhibited”. The “effect” value in assay [1] (concentration not given) was “no effect”. Also, the “effect” value in assay [1] (up to 300 μM) is “did not exhibit any effect”.

In the case of `Cc1ccc(CN2C(=O)CC[C@H]2C(=O)N2CCC[C@H](CNC(=O)OC(C)(C)C)C2)cc1` [Compound 7, (2S)-1-(4-methylphenylmethyl)-5-oxo-(3R)-{N-[(3-t-butoxycarbonyl-aminomethyl)]-piperidin-1-yl}-pyrrolidine-2-carboxamide], in the assay on hyperlipidemic hamsters, the “time to occlusion (TTO)” value is given as “remained ineffective”. On GPVI, the Platelet adhesion entry was “Effective” and the “human platelet adhesion” value is “partially inhibited”. In assay [1] (concentration not given), the “effect” value was “no effect”. In addition, the “effect” value in assay [1] (up to 300 μM) is “did not exhibit any effect”.
